Several values for one entry are separate records, joined by “and”; a condition that tells them apart may be missing. Equal entries are not always repeated.
Assays:
Human ASM cells = assay: EGF induced ASM proliferation ([3H]-thymidine incorporation); assay type: cell-based; conditions: for effect on EGF response (ASM proliferation): Mch 10 μM, atropine alone, DHEA-S in the presence or absence of Mch and atropine
Procedure: Human ASM cells were obtained from the distal trachea of transplant donors in compliance with the University of Pennsylvania's Institutional Review Board. Distal trachealis was dissected free of connective tissue and enzymatically digested to yield approximately 1×10^4 human ASM cells. These cells were then grown to confluence in 10% fetal bovine serum and quiesced in serum-free media containing 1% bovine serum albumin for 24 hours. […] After the initial incubation, cells were then exposed to [^3H]-thymidine and DNA synthesis was measured over 24 hours using thymidine incorporation. The cells were scraped and placed on filters which were then counted using a beta counter. All experiments were repeated in a minimum of three human ASM cell lines. All conditions per experiment were run with six replicates.

[1] = Particle size after jet milling or spray drying (Malvern Mastersizer X, light microscope); assay type: physicochemical; conditions: two batches
Procedure: Approximately 1 g sample was passed through the jet mill, once, and approximately 2 g sample were passed through the jet mill twice. […] The resulting solution was sonicated for 3 minutes and appeared fully dispersed. The dispersed solutions were tested on a Malvern Mastersizer X with a small volume sampler (SVS) attachment. One sample of dispersed material was tested 5 times. The median particle size or D (v, 0.5) of unmilled material was 52.56 μm and the % RSD (relative standard deviation) was 7.61 for the 5 values. The D (v, 0.5) for a single pass through the jet mill was 3.90 μm and the % RSD was 1.27, and the D (v, 0.5) from a double pass through the jet mill 3.25 μm and the % RSD was 3.10.
The solution was spray-dried with a B-191 Mini Spray-Drier (Buchi, Flawil, Switzerland) with an inlet temperature of 55° C., outlet temperature of 40° C., at 100% aspirator, at 10% pump, nitrogen flow at 40 mbar and spray flow at 600 units. The spray-dried product was suspended in hexane and Span85 surfactant added to reduce agglomeration. The dispersions were sonicated with cooling for 3-5 minutes for complete dispersion and the dispersed solutions tested on a Malvern Mastersizer X with a Small Volume Sampler (SVS) attachment. […] Visual examination by light microscope of the dispersions of each batch confirmed that spray drying produced small respirable size particles. […]

HT-29 SF cells [2] = assay: Reversal of DHEA effect on cell cycle; assay type: cell-based, human; conditions: 25 FM DHEA; supplemented medium; 48 and 72 hours
HT-29 SF cells [3] = assay: DHEA effect on cell growth; assay type: cell-based, human; conditions: 0, 12.5, 25, 50, or 200 μM; 0-72 hours
[4] = Solubility of DHEA-S in NaCl solutions; assay type: physicochemical; conditions: 20 mM Na+; Ksp 1316 mM^2; 15° C.
Description: Inhalation of pure water can produce a cough stimulus. […] The temperature effect is weaker at high NaCl concentrations.

[5] = Short-term solution stability of DHEA-S nebulizer formulation; assay type: physicochemical; conditions: 10 mg/mL in 0.12% NaCl
Procedure: Aliquots of this solution are filled into clear glass vials and stored at RT (24-26° C.) and at 40° C. The samples are checked daily for DHEA-S content, DHEA content, and appearance. For each time point, duplicate samples are withdrawn and diluted from each vial. […] The study is stopped on day three. […] The solution should easily be stable for the day of reconstitution in a clinical trial. The following section describes the aerosol properties of this formulation.

[6] = Nebulizer studies (Pari LC Plus, by-pass collector and impactor); conditions: 0.12% NaCl
Procedure: The nebulizer is filled with 5 mL of solution and nebulization is continued until the output became visually insignificant (4½ to 5 min.). Nebulizer solutions are tested using a California Instruments AS-6 6-stage impactor with a USP throat. The impactor is run at 30 L/min for 8 s to collect a sample following one minute of nebulization time. At all other times during the experiment, the aerosol is drawn through the by-pass collector at approximately 33 L/min. The collection apparatus, nebulizer, and impactor are rinsed with mobile phase and assayed by HPLC. […] This volume is selected as the practical upper limit for use in a clinical study.

CC(=O)OC(C)C[N+](C)(C)C (centres unmarked)
effect on EGF response (ASM proliferation) (Human ASM cells): further augmented

C[C@]12CC[C@H](OS(=O)(=O)[O-])CC1=CC[C@@H]1[C@@H]2CC[C@]2(C)C(=O)CC[C@@H]12.[Na+] [Anhydrous DHEA-S]
mean particle size of spray dried material ([1]; Malvern Mastersizer X): 5.07±0.70 μm and 6.66±0.91 μm
mean particle size of spray dried material ([1]; visual examination by light microscope): 2.4 μm and 2.0 μm

CC(C)CCC[C@@H](C)[C@H]1CC[C@H]2[C@@H]3CC=C4C[C@@H](O)CC[C@]4(C)[C@H]3CC[C@]12C [CH, cholesterol]
prevention of DHEA-induced S phase depletion (G1 arrest) (HT-29 SF cells [2]): very little effect at 48 hours and no effect at 72 hours

C[C@]12CC[C@H](O)CC1=CC[C@@H]1[C@@H]2CC[C@]2(C)C(=O)CC[C@@H]12 [DHEA, 3β-hydroxyandrost-5-en-17-one]
effect on growth of HT-29 SF cells (HT-29 SF cells [3]): time- and dose-dependent inhibition of growth

C[C@]12CC[C@H](OS(=O)(=O)[O-])CC1=CC[C@@H]1[C@@H]2CC[C@]2(C)C(=O)CC[C@@H]12.[Na+] [DHEA-S, sodium dehydroepiandrostenone sulfate]
calculated DHEA-S solution concentration [4]: 27.5 mM
solution appearance on storage ([5]; 40° C.): became cloudy after two days of storage
solution appearance on storage ([5]; RT (24-26° C.)): slight precipitate is observed on the third day
highest solution concentration for clinical trial formulation (no precipitate during nebulization) [6]: approximately 7.5 mg/mL
effect on EGF response (ASM proliferation) (Human ASM cells): attenuate the EGF response

C[C@@](O)(CCO)CC(=O)O [MVA, mevalonic acid]
prevention of DHEA-induced S phase depletion (G1 arrest) (HT-29 SF cells [2]): partially prevented this effect in the initial 48 hours but not after 72 hours

CN1[C@@H]2CC[C@H]1C[C@@H](OC(=O)C(CO)c1ccccc1)C2 (some centres unmarked) [atropine]
effect on Mch augmentation of EGF response (Human ASM cells; EGF plus 10 μM Mch): reverse the effects of Mch
effect on EGF response (ASM proliferation) (Human ASM cells): no effect on EGF response

EGF: growth factor used to induce DNA synthesis in human ASM cells (NSDSECPLSHDGYCLHDGVCMYIEALDKYACNCVVGYIGERCQYRDLKWWELR; Epidermal growth factor; UniProt P01133 971-1023, looked up)
increase in ASM proliferation (Human ASM cells; EGF (1 ng/ml), thymidine incorporation): 8 fold
